Measured values from patent publication US4684664A, “Derivatives of β-(4-isocyano-1,2,3,4-diepoxycyclopentyl) acrylic acid” (Kureha Kagaku Kogyo Kabushiki Kaisha, priority 1984, dated 1987).
Values after ≈ are worked out from the molar mass of the structure shown.

Legend:
Assay type in all cases: cell-based
[1] = system: Staphylococcus aureus FDA 209PJc-1; assay: Antibacterial activity, agar-dilution MIC, organism No. 1; settings: Staphylococcus aureus, FDA209PJC1; Organism No. 1, bouillon-agar; read-out: Minimum Inhibitory Concentration
In short: (§1)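 Minimum inhibitory concentration determined on solid bouillon agar by the agar-dilution technique, with values stated as μg/ml.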

[2] = system: Staphylococcus aureus Terajima; assay: Antibacterial activity, agar-dilution MIC, organism No. 2; settings: Staphylococcus aureus; Organism No. 2, bouillon-agar; read-out: Minimum Inhibitory Concentration
In short: as §1

[3] = system: Staphylococcus aureus MS 353; assay: Antibacterial activity, agar-dilution MIC, organism No. 3; settings: Staphylococcus aureus, MS353; Organism No. 3, bouillon-agar; read-out: Minimum Inhibitory Concentration
In short: as §1

[4] = system: Streptococcus pyogenes Cook; assay: Antibacterial activity, agar-dilution MIC, organism No. 4; settings: Streptococcus pyogenes; Organism No. 4, bouillon-agar; read-out: Minimum Inhibitory Concentration
In short: as §1

[5] = system: Escherichia coli NIHJ-JC-2; assay: Antibacterial activity, agar-dilution MIC, organism No. 5; settings: Escherichia coli, NIHJJC2; Organism No. 5, bouillon-agar; read-out: Minimum Inhibitory Concentration
In short: as §1

[6] = system: Escherichia coli K12 C600 IAM 1264; assay: Antibacterial activity, agar-dilution MIC, organism No. 6; settings: Escherichia coli, IAM1264; Organism No. 6, bouillon-agar; read-out: Minimum Inhibitory Concentration
In short: as §1

[7] = system: Klebsiella pneumoniae PCI-602; assay: Antibacterial activity, agar-dilution MIC, organism No. 7; settings: Klebsiella pneumoniae, PCI602; Organism No. 7, bouillon-agar; read-out: Minimum Inhibitory Concentration
In short: as §1

[8] = system: Salmonella typhimurium IID 971; assay: Antibacterial activity, agar-dilution MIC, organism No. 8; settings: Salmonella enterica; Organism No. 8, bouillon-agar; read-out: Minimum Inhibitory Concentration
In short: as §1

Salmonella typhi 901 = assay: Antibacterial activity, agar-dilution MIC, organism No. 9; settings: Salmonella enterica, TYPHI, read-out: Minimum Inhibitory Concentration
In short: as §1

[9] = system: Salmonella paratyphi-A 1015; assay: Antibacterial activity, agar-dilution MIC, organism No. 10; settings: Salmonella enterica, PARATYPHI, read-out: Minimum Inhibitory Concentration
In short: as §1

[10] = system: Salmonella shottmuelleri 8006; assay: Antibacterial activity, agar-dilution MIC, organism No. 11; settings: Salmonella, 8006; Organism No. 11, bouillon-agar; read-out: Minimum Inhibitory Concentration
In short: as §1

[11] = system: Salmonella enteritidis G 14; assay: Antibacterial activity, agar-dilution MIC, organism No. 12; settings: Salmonella enterica, ENTERITIDIS; Organism No. 12, bouillon-agar; read-out: Minimum Inhibitory Concentration
In short: as §1

[12] = system: Serratia marcescens IAM 1184; assay: Antibacterial activity, agar-dilution MIC, organism No. 13; settings: Serratia marcescens, IAM1184; Organism No. 13, bouillon-agar; read-out: Minimum Inhibitory Concentration
In short: as §1

[13] = system: Bacillus subtilis ATCC 6633; assay: Antibacterial activity, agar-dilution MIC, organism No. 14; settings: Bacillus subtilis, ATCC6633; Organism No. 14, bouillon-agar; read-out: Minimum Inhibitory Concentration
In short: as §1

[14] = system: Pseudomonas aeruginosa IFO 3445; assay: Antibacterial activity, agar-dilution MIC, organism No. 15; settings: Pseudomonas aeruginosa, IFO3445; Organism No. 15, bouillon-agar; read-out: Minimum Inhibitory Concentration
In short: as §1

[15] = system: Pseudomonas aeruginosa NCTC 10490; assay: Antibacterial activity, agar-dilution MIC, organism No. 16; settings: Pseudomonas aeruginosa, NCTC10490; Organism No. 16, bouillon-agar; read-out: Minimum Inhibitory Concentration
In short: as §1

[16] = system: Pseudomonas aeruginosa PAO 1; assay: Antibacterial activity, agar-dilution MIC, organism No. 17; settings: Pseudomonas aeruginosa, PAO1; Organism No. 17, bouillon-agar; read-out: Minimum Inhibitory Concentration
In short: as §1

[17] = system: Proteus morganii IFO 3848; assay: Antibacterial activity, agar-dilution MIC, organism No. 18; settings: Morganella morganii, IFO3848; Organism No. 18, bouillon-agar; read-out: Minimum Inhibitory Concentration
In short: as §1

[18] = system: Proteus mirabilis IFO 3849; assay: Antibacterial activity, agar-dilution MIC, organism No. 19; settings: Proteus mirabilis, IFO3849; Organism No. 19, bouillon-agar; read-out: Minimum Inhibitory Concentration
In short: as §1

Proteus vulgaris OX-19 = assay: Antibacterial activity, agar-dilution MIC, organism No. 20; settings: Proteus vulgaris, OX19; Organism No. 20, bouillon-agar; read-out: Minimum Inhibitory Concentration
In short: as §1

Proteus vulgaris HX-19 = assay: Antibacterial activity, agar-dilution MIC, organism No. 21; settings: Proteus vulgaris, HX19; Organism No. 21, bouillon-agar; read-out: Minimum Inhibitory Concentration
In short: as §1

[19] = system: Proteus rettgeri IFO 3850; assay: Antibacterial activity, agar-dilution MIC, organism No. 22; settings: Providencia rettgeri, IFO3850; Organism No. 22, bouillon-agar; read-out: Minimum Inhibitory Concentration
In short: as §1

[20] = system: Enterobacter aerogenes ATCC 13048; assay: Antibacterial activity, agar-dilution MIC, organism No. 23; settings: Klebsiella aerogenes, ATCC13048; Organism No. 23, bouillon-agar; read-out: Minimum Inhibitory Concentration
In short: as §1

Enterobacter cloacae 963 = assay: Antibacterial activity, agar-dilution MIC, organism No. 24; settings: Enterobacter cloacae, 963; Organism No. 24, bouillon-agar; read-out: Minimum Inhibitory Concentration
In short: as §1

[21] = system: Micrococcus luteus ATCC 9341; assay: Antibacterial activity, agar-dilution MIC, organism No. 25; settings: Micrococcus luteus, ATCC9341; Organism No. 25, bouillon-agar; read-out: Minimum Inhibitory Concentration
In short: as §1

[22] = system: Streptococcus pyogenes IFO 3340; assay: Antibacterial activity, agar-dilution MIC, organism No. 26; settings: Streptococcus pyogenes, IFO3340; Organism No. 26, bouillon-agar; read-out: Minimum Inhibitory Concentration
In short: as §1

[23] = system: Streptococcus faecium IFO 3826; assay: Antibacterial activity, agar-dilution MIC, organism No. 27; settings: Enterococcus faecium, IFO3826; Organism No. 27, bouillon-agar; read-out: Minimum Inhibitory Concentration
In short: as §1

[24] = system: Mycoplasma pneumoniae IID817; assay: Antimycoplasmal activity, MIC by phenol red colour change, organism No. 28; settings: Mycoplasma, IID817; Organism No. 28, PPLO broth + 1% glucose, 37° C.; read-out: Minimum Inhibitory Concentration (MIC)
Method: Mycoplasma pneumoniae IID817 was used as the test microorganism in a culture medium prepared by adding 1% of glucose to "PPLO broth (manufactured by Difco Co.) liquid culture medium" at 37° C. with phenol red as an indicator, thereby culturing the test microorganism.

[25] = system: Candida albicans IAM 4905; assay: Antifungal activity, agar-dilution MIC, organism No. 29; settings: Candida albicans, IAM4905; Organism No. 29, bouillon-agar; read-out: Minimum Inhibitory Concentration
In short: as §1

[26] = system: Aspergillus niger IFO 6342; assay: Antifungal activity, agar-dilution MIC, organism No. 30; settings: Aspergillus niger, IFO6342; Organism No. 30, bouillon-agar; read-out: Minimum Inhibitory Concentration
In short: as §1

Row | SMILES | MIC [1] | MIC [2] | MIC [3] | MIC [4] | MIC [5] | MIC [6] | MIC [7] | MIC [8] | MIC (Salmonella typhi 901) | MIC [9] | MIC [10] | MIC [11] | MIC [12] | MIC [13] | MIC [14] | MIC [15] | MIC [16] | MIC [17] | MIC [18] | MIC (Proteus vulgaris OX-19) | also measured
1 | [C-]#[N+]C12CC3(/C=C/C(=O)Nc4cccc(C(=O)OC)c4)OC3C1O2 (stereo not drawn) [compound 50] | 0.2 µg/mL (≈ 0.613 µM) | 1.56 µg/mL (≈ 4.78 µM) | 0.39 µg/mL (≈ 1.2 µM) | 200 µg/mL (≈ 613 µM) | > 200 µg/mL | > 200 µg/mL | 0.39 µg/mL (≈ 1.2 µM) | 50 µg/mL (≈ 153 µM) | 25 µg/mL (≈ 76.6 µM) | 6.25 µg/mL (≈ 19.2 µM) | 1.56 µg/mL (≈ 4.78 µM) | 6.25 µg/mL (≈ 19.2 µM) | > 200 µg/mL | 6.25 µg/mL (≈ 19.2 µM) | > 200 µg/mL | > 200 µg/mL | > 200 µg/mL | 1.56 µg/mL (≈ 4.78 µM) | > 200 µg/mL | 1.56 µg/mL (≈ 4.78 µM) | MIC (Proteus vulgaris HX-19): 0.1 µg/mL (≈ 0.306 µM); MIC [19]: 6.25 µg/mL (≈ 19.2 µM); MIC [20]: > 200 µg/mL; MIC (Enterobacter cloacae 963): 200 µg/mL (≈ 613 µM); MIC [21]: < 0.05 µg/mL; MIC [22]: 1.56 µg/mL (≈ 4.78 µM); MIC [23]: 12.5 µg/mL (≈ 38.3 µM); MIC [24]: < 0.2 µg/mL; MIC [25]: 0.79 µg/mL (≈ 2.42 µM); MIC [26]: 1.56 µg/mL (≈ 4.78 µM)
2 | [C-]#[N+]C12CC3(/C=C/C(=O)Nc4ccc(C(=O)O)cc4)OC3C1O2 (stereo not drawn) [compound 51] | 12.5 µg/mL (≈ 40 µM) | 12.5 µg/mL (≈ 40 µM) | 6.25 µg/mL (≈ 20 µM) | 12.5 µg/mL (≈ 40 µM) | 200 µg/mL (≈ 640 µM) | 200 µg/mL (≈ 640 µM) | 100 µg/mL (≈ 320 µM) | 100 µg/mL (≈ 320 µM) | 50 µg/mL (≈ 160 µM) | 50 µg/mL (≈ 160 µM) | 50 µg/mL (≈ 160 µM) | 50 µg/mL (≈ 160 µM) | > 200 µg/mL | 50 µg/mL (≈ 160 µM) | > 200 µg/mL | > 200 µg/mL | > 200 µg/mL | 1.56 µg/mL (≈ 5 µM) | > 200 µg/mL | 12.5 µg/mL (≈ 40 µM) | MIC (Proteus vulgaris HX-19): 12.5 µg/mL (≈ 40 µM); MIC [19]: > 200 µg/mL; MIC [20]: > 200 µg/mL; MIC (Enterobacter cloacae 963): > 200 µg/mL; MIC [21]: 1.56 µg/mL (≈ 5 µM); MIC [22]: 25 µg/mL (≈ 80.1 µM); MIC [23]: 12.5 µg/mL (≈ 40 µM); MIC [24]: < 0.2 µg/mL; MIC [25]: 100 µg/mL (≈ 320 µM); MIC [26]: 100 µg/mL (≈ 320 µM)
